The values below come from patent publication US20050287163A1, “Mycoplasma polypeptides” (priority 2002, published 2005).

“Also recorded” adds a separate entry of the source. A value given as a limit tells only on which side of the number the result lay.

Test [1] deals with M. hyopneumoniae-induced [Ca2+]i increase in porcine ciliated tracheal cells. The test can be described thus: Effect of pretreatment of tracheal cells on M. hyopneumoniae-induced [Ca2+]i increase. Format: cell-based. As for the experimental part: (§1) The following techniques were used to obtain [Ca^2+]i measurements in single cells. The tracheal cells were loaded with 4 μM fura-2 acetoxymethyl ester (fura-2AM) in Krebs-Ringer bicarbonate (KRB) buffer solution containing: 136 mM NaCl, 4.8 mM KCl, 1.5 mM CaCl2, 1.2 mM KH2PO4, 1.2 mM MgSO4, 10 mM HEPES, 5.5 mM glucose, and 0.1% BSA, pH 7.4 and incubated for 30 minutes at 37° C. The loaded cells were centrifuged (700× g, 2 minutes), then resuspended with KRB at a concentration of 500-1000 cells/mL. The tracheal cells loaded with fura-2AM were plated onto poly-lysine-coated coverslips in a custom-made Petri dish. The dish containing fura-2 loaded cells was mounted on the stage of an inverted fluorescence microscope (Carl Zeiss, NY). Only viable ciliated tracheal cells were focused on for the determination of [Ca^2+]i at 24° C. The fura-2 loaded porcine ciliated tracheal cells deteriorated quickly at 37° C. Fluorescence images were obtained (excitation wavelengths of 334 and 380 nm; emission wavelength of 510±20 nm) and used to generate spatially resolved maps of [Ca^2+]i by subtracting the background dividing the images on a pixel-by-pixel basis. The emitted signals were digitalized, recorded, and processed using the Attofluor digital fluorescence imaging system (Atto Instruments, Rockville, Md.). After reading fluorescence for 150 seconds, mycoplasmas were mixed with the cell system. [Ca^2+]i was calculated as previously described (Grynkiewicz et al., J. Biol. Chem., 260:3440-3450 (1985)). Calibration was performed in situ according to the procedure provided by Atto Instruments, using Fura-2 penta K^+ as a standard.
To investigate the pathway of Ca^2+ signaling, pertussis toxin (PTX, 100 ng/mL) was preincubated with tracheal cells for 3 hours. Cells were pretreated with thapsigargin (TG, 1 μM) for 30 minutes at 37° C. prior to the addition of the mycoplasmas to deplete the ER Ca^2+ store (Thastrup et al., Proc. Natl. Acad. Sci. USA, 87:2466-2470 (1990)). […] To confirm that mycoplasmas increased [Ca^2+]i by activating a Gi/o protein, Mas 7 (10 μM), an activator of this protein (Higashijima et al., J. Biol. Chem., 265:14176-14186 (1990)), was used to determine if it can increase [Ca^2+]i in tracheal cells. In addition, it was determined whether PTX can block the increase in [Ca^2+]i due to Mas 7.

In test [2] the test system is porcine ciliated tracheal epithelial cells. As to the kind of experiment: [Ca2+]i measurement in single fura-2 loaded ciliated tracheal cells. Format: cell-based. As for the experimental part: Tracheal cells were isolated as previously described (Young et al., Vet. Microbiol., 71:269-279 (1999)). Briefly, the tracheas were removed from 3-6 month old specific-pathogen-free pigs anesthetized with sodium pentobarbital using aseptic techniques. The ciliated cells were dissociated using 0.15% pronase and 0.01% DNase in Ca^2+- and Mg^2+-free MEM medium, which was incubated at 4° C. for 24 hours. The epithelial cells were collected by centrifugation at 125× g for 5 minutes. The cell pellets were resuspended in a mixture of DMEM (high glucose) and Ham's F-12 (1:1) media containing 5% FBS, 0.12 U/mL of insulin, and 100 U/mL of penicillin-streptomycin. Cell suspensions were transferred to 90-mm tissue culture dishes and incubated in 5% CO2 for 60-90 minutes to remove fibroblasts. The tracheal epithelial cells were stored in liquid nitrogen until use.
as §1
To compare the [Ca^2+]i of tracheal cells response to pathogenic M. hyopneumoniae strain 91-3, avirulent M. hyopneumoniae, and M. flocculare, the cells were treated with the same concentration of 300 μg/mL. One to five ciliated single tracheal cells in each experiment were selected to investigate the [Ca^2+]i changes. The mycoplasmas were maintained on ice before being applied to tracheal cells.
Data on [Ca^2+]i were analyzed by ANOVA or by Student's t-test. The significance level was set at P<0.05.

The test system of test [3] is Mas 7-induced [Ca2+]i increase in ciliated tracheal cells. The test can be described thus: Effect of PTX pretreatment on Mas 7-induced [Ca2+]i increase. It is filed as cell-based, porcine. As to conditions: PTX pretreatment (100 ng/mL, 3 hours); Mas 7 10 μM. As to the method: as §1, with “Only viable ciliated tracheal cells were focused on for the determination of [Ca^2+]i at 24° C. The fura-2 loaded porcine ciliated tracheal cells deteriorated quickly at 37° C.” left out, “Calibration was performed in situ according to the procedure provided by Atto Instruments, using Fura-2 penta K^+ as a standard.” left out

The subject of test [4] is Mhyo membrane-induced [Ca2+]i increase in ciliated tracheal cells. As to the kind of experiment: Protease pretreatment of Mhyo membrane, effect on membrane-induced [Ca2+]i increase. Format: cell-based, porcine. As for the experimental part:
FIG. 6 contains four graphs plotting [Ca^2+]i response in ciliated porcine tracheal cells inoculated with Mhyo membranes. Each trace indicates the [Ca^2+]i changes in each tracheal cell. The arrows indicate when administration occurred. (A) The membrane preparation (100 μg/mL) increased [Ca^2+]i. (B) Digestion with proteinase K blocked the membrane-induced increase in [Ca^2+]i. The membrane (100 μg/0.1 mL PBS) was incubated with proteinase K (2 μg) at 37° C. for 8 hours before it was applied to tracheal cells in 0.9 mL Krebs-Ringer bicarbonate (KRB) buffer. (C) Digestion with trypsin potentiated the membrane-induced increase in [Ca^2+]i. The membrane (100 μg/0.1 mL PBS) was incubated with trypsin (6 μg) at 37° C. for 30 minutes before it was applied to tracheal cells in 0.9 mL KRB. […] The soluble protein was prepared by subjecting the trypsinized membrane to ultracentrifigation (100,000× g, 60 minutes) to obtain the supernatant.
Mycoplasmas lack cell walls and have only one type of membrane, the plasma membrane (Razin S. (1993) Mycoplasma membranes as models in membrane research (Chapter 2), In: Subcellular Biochemistry. Vol 20: Mycoplasma Cell Membranes, edited by Rottem S, Kahane I. Plenum Press, New York. pp. 1-28). The Mhyo membrane was prepared by osmotic lysis of the organisms and tested to determine if it increased [Ca^2+]i in ciliated tracheal cells. […]

Test [5] concerns guinea pig tracheal epithelia. As to conditions: trypsin 0.1 U/mL; cited from earlier work.

On to `COc1ccc2c(c1)CC[C@@H]1[C@@H]2CC[C@]2(C)[C@@H](NCCCCCCN3C(=O)CCC3=O)CC[C@@H]12` [U-73343], for which the “cells that responded to mycoplasma with pretreatment” value in test [1] (U-73343 2 μM) is 82%. Besides, the “peak [Ca2+]i after mycoplasma with pretreatment” value in test [1] (U-73343 2 μM, basal: 90±12 nM, 10 cells) was determined as 330 ± 25 nM. For the same compound, the “effect on M. hyopneumoniae-induced [Ca2+]i response” value in test [1] (pretreatment 2 μM, inactive analogue U-73343) was “did not prevent”.
Turning to Mastoparan 7, the “[Ca2+]i after administration” value in test [2] (10 μM, from basal level of 103±4 nM, n=9 cells) was 351 ± 24 nM. Also, in test [2] (Mas 7 10 μM), the cells that responded is on record as 82% and the “time to [Ca2+]i increase” value is at most 100 s. Besides, in test [2] (Mas 7 administration), the “effect on [Ca2+]i” value was “increased”.
Consider pertussis toxin, for which, in test [1] (pretreatment 100 ng/mL, 3 hours), the “effect on M. hyopneumoniae-induced [Ca2+]i increase” value is “abolished”. In test [3], the “effect on Mas 7-induced [Ca2+]i increase” value is on record as “abolished”.
With `C/C=C(/C)C(=O)O[C@H]1C(C)=C2[C@H]([C@@H]1OC(=O)CCCCCCC)[C@@](C)(OC(C)=O)C[C@H](OC(=O)CCC)[C@@]1(O)[C@H]2OC(=O)[C@@]1(C)O` [thapsigargin], the “effect on M. hyopneumoniae-induced [Ca2+]i increase” value in test [1] (pretreatment 1 μM, 30 minutes, mycoplasma 300 μg/mL) is reported as “abolished”.
For trypsin, the “effect of trypsin alone on [Ca2+]i” value in test [2] (trypsin alone at ≧1 U/mL) was “increase”. For the same compound, the results for the “effect of trypsin pretreatment on membrane-induced [Ca2+]i increase” value in test [4] (pretreatment of the membrane for 30 minutes) and in test [4] (pretreatment of the membrane for 16 hours) were “potentiated” and “failed to reduce”, respectively. Moreover, in test [5], the “effect on [Ca2+]i” value is recorded as “can increase”.
For the compound `COc1ccc2c(c1)CC[C@@H]1[C@@H]2CC[C@]2(C)[C@@H](NCCCCCCN3C(=O)C=CC3=O)CC[C@@H]12` [U-73122], in test [1] (pretreatment 2 μM, 100 seconds, U-73122), the “effect on M. hyopneumoniae-induced [Ca2+]i increase” value is listed as “abolished; also recorded: prevented”.
